Data published in ChEMBL document CHEMBL4219087, “Investigation of multi-target-directed ligands (MTDLs) with butyrylcholinesterase (BuChE) and indoleamine 2,3-dioxygenase 1 (IDO1) inhibition: The design, synthesis of miconazole analogues targeting Alzheimer's disease” (Bioorg Med Chem, 2018).

Assays:
Acetylcholinesterase = Acetylcholinesterase (Electrophorus electricus, UniProt O42275); assay: Inhibition of electric eel AChE using acetylthiocholine iodide as substrate preincubated for 5 mins followed by substrate addition measured after 2 mins by modified Ellman assay
Cholinesterase = Cholinesterase (Equus caballus, UniProt P81908); assay: Inhibition of equine serum BChE using butyrylthiocholine iodide as substrate preincubated for 5 mins followed by substrate addition measured after 2 mins by modified Ellman assay
[1] = Selectivity index, ratio of IC50 for electric eel AChE to IC50 for equine serum BChE
[2] = molecular target: Indoleamine 2,3-dioxygenase 1 (Homo sapiens, UniProt P14902); assay: Inhibition of human recombinant IDO1 using L-tryptophan as substrate after 30 mins by fluorimetric analysis
Mus musculus [3] = assay: Reversal of scopolamine-induced cognitive function impairment in ICR mouse assessed as escape latency time at 15 mg/kg, po dosed 30 mins prior to scopolamine treatment by Morris water maze test (reference value: 40.5 sec); assay type: functional
Mus musculus [4] = assay: Hepatotoxicity in ICR mouse assessed as serum ALT level at 15 mg/kg, ig after 8 hrs; assay type: toxicity, organism-based; details: in vivo, po
Mus musculus [5] = assay: Hepatotoxicity in ICR mouse assessed as serum ALT level at 15 mg/kg, ig after 22 hrs; assay type: toxicity, organism-based; details: in vivo, po
Mus musculus [6] = assay: Hepatotoxicity in ICR mouse assessed as serum ALT level at 15 mg/kg, ig after 36 hrs; assay type: toxicity, organism-based; details: in vivo, po
Mus musculus [7] = assay: Hepatotoxicity in ICR mouse assessed as serum AST level at 15 mg/kg, ig after 8 hrs; assay type: toxicity, organism-based; details: in vivo, po
Mus musculus [8] = assay: Hepatotoxicity in ICR mouse assessed as serum AST level at 15 mg/kg, ig after 22 hrs; assay type: toxicity, organism-based; details: in vivo, po
Mus musculus [9] = assay: Hepatotoxicity in ICR mouse assessed as serum AST level at 15 mg/kg, ig after 36 hrs; assay type: toxicity, organism-based; details: in vivo, po
Mus musculus [10] = assay: Hepatotoxicity in ICR mouse assessed as pericentral necrosis of hepatocytes surrounding intermediate and periportal zones at 15 mg/kg, ig after 30 hrs by hematoxylin and eosin staining-based assay; assay type: toxicity, organism-based; details: in vivo, po
Mus musculus [11] = assay: Hepatotoxicity in ICR mouse assessed as fatty degeneration of hepatocytes surrounding intermediate and periportal zones at 15 mg/kg, ig after 30 hrs by hematoxylin and eosin staining-based assay; assay type: toxicity, organism-based; details: in vivo, po

Sequence of Indoleamine 2,3-dioxygenase 1 (P14902 whole entry): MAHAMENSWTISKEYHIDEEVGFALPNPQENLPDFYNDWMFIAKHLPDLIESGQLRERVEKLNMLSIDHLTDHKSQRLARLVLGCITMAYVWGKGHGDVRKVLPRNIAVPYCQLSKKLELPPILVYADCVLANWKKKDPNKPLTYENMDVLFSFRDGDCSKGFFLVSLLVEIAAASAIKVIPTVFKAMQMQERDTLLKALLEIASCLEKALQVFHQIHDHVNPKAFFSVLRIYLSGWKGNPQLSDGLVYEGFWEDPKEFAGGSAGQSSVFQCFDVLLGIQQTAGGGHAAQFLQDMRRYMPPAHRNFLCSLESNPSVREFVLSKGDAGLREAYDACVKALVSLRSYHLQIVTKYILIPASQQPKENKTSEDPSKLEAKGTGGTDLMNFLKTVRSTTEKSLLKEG
Sequence of Acetylcholinesterase (O42275 whole entry): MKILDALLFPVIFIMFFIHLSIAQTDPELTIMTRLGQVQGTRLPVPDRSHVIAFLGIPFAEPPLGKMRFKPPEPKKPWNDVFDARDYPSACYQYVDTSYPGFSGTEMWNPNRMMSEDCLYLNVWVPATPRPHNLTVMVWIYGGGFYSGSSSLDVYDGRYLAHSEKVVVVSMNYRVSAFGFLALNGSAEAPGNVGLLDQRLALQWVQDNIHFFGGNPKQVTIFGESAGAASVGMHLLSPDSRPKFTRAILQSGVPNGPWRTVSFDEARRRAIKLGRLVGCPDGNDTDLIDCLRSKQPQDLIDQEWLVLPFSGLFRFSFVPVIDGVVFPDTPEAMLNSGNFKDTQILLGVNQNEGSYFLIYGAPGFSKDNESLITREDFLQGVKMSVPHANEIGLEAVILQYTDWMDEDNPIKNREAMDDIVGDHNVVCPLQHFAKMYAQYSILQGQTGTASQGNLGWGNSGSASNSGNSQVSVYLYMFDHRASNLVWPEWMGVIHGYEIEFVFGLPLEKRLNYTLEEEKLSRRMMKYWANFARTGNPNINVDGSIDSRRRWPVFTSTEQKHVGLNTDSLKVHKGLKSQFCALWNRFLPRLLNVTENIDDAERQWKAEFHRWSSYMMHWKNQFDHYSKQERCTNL
Sequence of Cholinesterase (P81908 whole entry): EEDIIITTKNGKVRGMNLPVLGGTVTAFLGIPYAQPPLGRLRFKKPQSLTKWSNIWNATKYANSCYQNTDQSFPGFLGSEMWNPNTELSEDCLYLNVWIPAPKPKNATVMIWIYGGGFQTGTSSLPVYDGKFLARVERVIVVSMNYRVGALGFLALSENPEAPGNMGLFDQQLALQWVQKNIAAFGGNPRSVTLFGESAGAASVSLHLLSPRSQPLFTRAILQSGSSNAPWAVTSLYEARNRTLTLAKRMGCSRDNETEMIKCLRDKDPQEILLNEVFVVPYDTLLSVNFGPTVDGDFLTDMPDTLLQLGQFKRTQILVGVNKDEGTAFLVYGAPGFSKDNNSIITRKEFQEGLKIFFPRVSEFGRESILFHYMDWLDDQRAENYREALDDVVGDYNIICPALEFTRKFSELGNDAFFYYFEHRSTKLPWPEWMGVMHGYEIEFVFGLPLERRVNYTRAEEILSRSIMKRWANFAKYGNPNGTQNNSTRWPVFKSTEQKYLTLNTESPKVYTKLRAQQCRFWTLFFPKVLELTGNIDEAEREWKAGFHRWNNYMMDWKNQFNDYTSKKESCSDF

Row | SMILES | IC50 (Acetylcholinesterase) [µM] | IC50 (Cholinesterase) [µM] | Ratio IC50 [1] | IC50 [2] [nM] | Time (Mus musculus [3]) [s] | Activity (Mus musculus [4]) | Activity (Mus musculus [5]) | Activity (Mus musculus [6]) | Activity (Mus musculus [7]) | Activity (Mus musculus [8]) | Activity (Mus musculus [9]) | Activity (Mus musculus [10]) | Activity (Mus musculus [11])
1 | COc1cccc(COC(Cn2ccnc2)c2ccc(Cl)cc2Cl)c1 (centres undefined) | 81.3 | 8.3 | 9.9 | 2800 | 19.7 | Non-Toxic | Non-Toxic | Non-Toxic | Non-Toxic | Non-Toxic | Non-Toxic | Non-Toxic | Non-Toxic
2 | Cc1ccccc1COC(Cn1ccnc1)c1ccc(Cl)cc1Cl (centres undefined) | 37.5 | 18.4 | 2 | 2200 | – | – | – | – | – | – | – | – | –
3 | Fc1cccc(F)c1COC(Cn1ccnc1)c1ccc(Cl)cc1Cl (centres undefined) | 176 | 19.2 | 9.2 | 4200 | – | – | – | – | – | – | – | – | –
4 | CC(C)(C)c1ccc(COC(Cn2ccnc2)c2ccc(Cl)cc2Cl)cc1 (centres undefined) | 24.3 | 46.3 | 0.5 | 4400 | – | – | – | – | – | – | – | – | –
5 | Nc1c2c(nc3ccccc13)CCCC2 [TACRINE] | – | – | – | – | 25.9 | – | – | – | – | – | – | – | –
6 | Clc1ccc(C(Cn2ccnc2)OCc2ccc(Br)cc2)c(Cl)c1 (centres undefined) | 19.5 | 13.1 | 1.5 | 5700 | – | – | – | – | – | – | – | – | –
7 | COc1ccc(COC(Cn2ccnc2)c2ccc(Cl)cc2Cl)cc1 (centres undefined) | 73.1 | 16.5 | 4.4 | 1000 | 13.4 | Non-Toxic | Non-Toxic | Non-Toxic | Non-Toxic | Non-Toxic | Non-Toxic | Non-Toxic | Non-Toxic
8 | Cc1cccc(COC(Cn2ccnc2)c2ccc(Cl)cc2Cl)c1 (centres undefined) | 30.7 | 14.6 | 2.1 | 1200 | – | – | – | – | – | – | – | – | –
9 | Cc1ccc(COC(Cn2ccnc2)c2ccc(Cl)cc2Cl)cc1C (centres undefined) | 17.3 | 11.2 | 1.6 | 2200 | – | – | – | – | – | – | – | – | –
10 | Fc1ccc(COC(Cn2ccnc2)c2ccc(Cl)cc2Cl)cc1 (centres undefined) | 33 | 14.8 | 2.3 | 4000 | – | – | – | – | – | – | – | – | –
11 | Cc1ccc(COC(Cn2ccnc2)c2ccc(Cl)cc2Cl)cc1 (centres undefined) | 26.9 | 10.9 | 2.5 | 2000 | – | – | – | – | – | – | – | – | –
